Assay: Solubility of beta-cyclodextrin in water containing ClO2 (slurry test)
Assay type: physicochemical
Settings: 100 g slurry, 5% beta-cyclodextrin (w/w) in 8000 ppm ClO2 vs ultrapure water, 200 rpm, 3 days
Method: However indirect evidence for the complex has been observed. Beta-cyclodextrin has a known solubility in water. If the water contains a guest substance that produces a cyclodextrin complex more soluble than the cyclodextrin alone, more of the cyclodextrin will dissolve into water containing that guest than into plain water. This enhanced solubility has been observed for beta-cyclodextrin in water containing ClO2. Two separate 100 g slurries of beta-cyclodextrin solutions were prepared. […] Both slurries were mixed at 200 rpm for 3 days, at which time the undissolved beta-cyclodextrin was isolated from both solutions and dried for 2 days in a desiccator. […] It is believed, by extension, that ClO2 might form complexes with gamma-cyclodextrin and/or chemically derivatized versions of the natural (alpha- (“α”), beta- (“β”), and gamma- (“γ”)) cyclodextrins. In the case of beta- and/or gamma-cyclodextrin and/or other cyclodextrins having internal cavities larger than that of alpha-cyclodextrin, it might be that the complex(es) formed with ClO2 will incorporate numbers of ClO2 molecules greater than one per cyclodextrin molecule.

OC[C@H]1O[C@@H]2O[C@H]3[C@H](O)[C@@H](O)[C@@H](O[C@H]4[C@H](O)[C@@H](O)[C@@H](O[C@H]5[C@H](O)[C@@H](O)[C@@H](O[C@H]6[C@H](O)[C@@H](O)[C@@H](O[C@H]7[C@H](O)[C@@H](O)[C@@H](O[C@H]8[C@H](O)[C@@H](O)[C@@H](O[C@H]1[C@H](O)[C@H]2O)O[C@@H]8CO)O[C@@H]7CO)O[C@@H]6CO)O[C@@H]5CO)O[C@@H]4CO)O[C@@H]3CO [beta-cyclodextrin]
weight of dried undissolved beta-cyclodextrin from ClO2 containing slurry less than the control slurry: 0.32 g
